Reference: ChEMBL document CHEMBL1128265, “Three-dimensional quantitative structure-activity relationship (QSAR) of HIV integrase inhibitors: a comparative molecular field analysis (CoMFA) study” (J Med Chem, 1995)

How the values were obtained:
[1] = target: T1, Human immunodeficiency virus type 1 integrase (Human immunodeficiency virus 1, UniProt Q7ZJM1)
[2] = target: T1, Human immunodeficiency virus type 1 integrase; remark: listed apart in the source

T1 sequence (Q7ZJM1 whole entry): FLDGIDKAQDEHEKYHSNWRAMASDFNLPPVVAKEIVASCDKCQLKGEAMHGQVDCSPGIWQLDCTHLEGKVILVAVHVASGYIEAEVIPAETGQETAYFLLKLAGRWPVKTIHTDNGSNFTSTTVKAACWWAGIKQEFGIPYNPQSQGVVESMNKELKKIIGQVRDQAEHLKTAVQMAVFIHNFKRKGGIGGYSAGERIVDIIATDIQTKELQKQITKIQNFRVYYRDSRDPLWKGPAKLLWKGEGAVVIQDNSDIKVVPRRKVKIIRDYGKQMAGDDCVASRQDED

SMILES | IC50 [1] [µM] | IC50 [2] [µM]
CC1OC(O)C(O)C(O)C1Oc1c(-c2ccc(O)c(O)c2)oc2cc(O)cc(O)c2c1=O (centres undefined) | 38.5 | 60
COc1cc(O)c2c(=O)c(O)c(-c3ccc(O)c(O)c3)oc2c1 [RHAMNETIN] | 28.7 | 61.6
O=c1cc(-c2ccc(O)c(O)c2)oc2cc(O)cc(O)c12 [LUTEOLIN] | 25 | 32.9
O=c1c(O)c(-c2ccc(O)c(O)c2)oc2cc(O)ccc12 [FISETIN] | 8.5 | 28.4
C[C@@H]1O[C@@H](O)[C@H](O)[C@H](O)[C@H]1Oc1c(-c2cc(O)c(O)c(O)c2)oc2cc(O)cc(O)c2c1=O | 10.3 | 39.6
O=c1c(O)c(-c2ccc(O)c(O)c2)oc2c(O[C@@H]3O[C@@H](O)[C@@H](O)[C@H](O)[C@H]3O)c(O)cc(O)c12 | 22.5 | 69.7
O=c1c(OC2COC(O)C(O)C2O)c(-c2ccc(O)c(O)c2)oc2cc(O)cc(O)c12 (centres undefined) | 25.1 | 66.3
O=c1c(O)c(-c2cc(O)c(O)c(O)c2)oc2cc(O)ccc12 [ROBINETIN] | 1.6 | 5.9

More lines, in order of falling IC50 [1], values ahead:

IC50 [1] [µM] | IC50 [2] [µM] | SMILES
64.7 | 97.8 | O=c1c(O)c(-c2ccc(O)cc2)oc2cc(O)cc(O)c12 [KAEMPFEROL]
39.1 | 94.3 | COc1c(O)cc2oc(-c3ccc(O)c(O)c3)cc(=O)c2c1O [EUPAFOLIN]
31.7 | 76.5 | O=c1c(O)c(-c2ccc(O)cc2O)oc2cc(O)cc(O)c12 [MORIN]
0.1 | 0.8 | O=c1c(O)c(-c2ccc(O)c(O)c2)oc2cc(O)c(O)c(O)c12 [QUERCETAGETIN]
